Reference: ChEMBL document CHEMBL1130460, “ADA-Bypass by lipophilic cycloSal-ddAMP pro-nucleotides A second example of the efficiency of the cycloSal-Concept” (Bioorg Med Chem Lett, 1997)

Assays:
[1] = system: CCRF-CEM; assay: Effective concentration of compound against HIV-2 infected CEM/O cells; No activity up to > 250 uM; assay type: functional, cell-based, Homo sapiens
[2] = system: CCRF-CEM; assay: Effective concentration of compound against HIV-1 infected CEM/O cells; No activity up to > 250 uM; assay type: functional, cell-based, Homo sapiens
[3] = system: CCRF-CEM; assay: Cytotoxic activity was evaluated against CEM/O cells; No activity up to > 250 uM; assay type: functional, cell-based, Homo sapiens
[4] = system: CCRF-CEM; assay: Effective concentration of compound against HIV-2 infected CEM/O cells; assay type: functional, cell-based; conditions: Homo sapiens
[5] = Hydrolysis half-life (t1/2) in phosphate buffer at pH 7.3; assay type: ADME
[6] = system: CCRF-CEM; assay: Cytotoxic activity was evaluated against CEM/O cells; assay type: functional; conditions: Homo sapiens
[7] = Partition coefficient was measured in 1-octanol/phosphate buffer (pH 6.8); assay type: physicochemical
[8] = system: CCRF-CEM; assay: Effective concentration of compound against HIV-1 infected CEM/O cells; assay type: functional, cell-based; conditions: Homo sapiens

| SMILES | EC50 [1] | EC50 [2] | EC50 [3] | EC50 [4] [nM] | half-life [5] [h] | CC50 [6] [nM] | logD [7] | EC50 [8] [nM] |
| --- | --- | --- | --- | --- | --- | --- | --- | --- |
| COc1ccc(CO)c(O)c1 | Not Active | Not Active | Not Active | – | – | – | – | – |
| COc1ccc2c(c1)COP(=O)(OCC1CCC(n3cnc4c(N)ncnc43)O1)O2 (stereo not drawn) | – | – | – | 90 | 14 | 30400 | 0.61 | 65 |
| Nc1ncnc2c1ncn2C1CCC(COP2(=O)OCc3ccccc3O2)O1 (stereo not drawn) | – | – | – | 110 | 8.2 | 21900 | 0.54 | 120 |
| Cc1cccc2c1OP(=O)(OCC1CCC(n3cnc4c(N)ncnc43)O1)OC2 (stereo not drawn) | – | – | – | 35 | 35.1 | 9540 | 0.91 | 30 |
| Nc1ncnc2c1ncn2[C@H]1CC[C@@H](CO)O1 | – | – | – | 5330 | – | 200000 | -0.28 | 3670 |

The next lines start with results.

| EC50 [1] | EC50 [2] | SMILES | EC50 [3] | EC50 [4] [nM] | half-life [5] [h] | CC50 [6] [nM] | logD [7] | EC50 [8] [nM] |
| --- | --- | --- | --- | --- | --- | --- | --- | --- |
| Not Active | Not Active | OCc1ccccc1O [SALICYL ALCOHOL] | Not Active | – | – | – | – | – |
| Not Active | Not Active | Cc1cccc(O)c1CO | Not Active | – | – | – | – | – |
